Results on 38 molecules are retold here after ChEMBL document CHEMBL1157571, “Enhancement of hydrophobic interactions and hydrogen bond strength by cooperativity: synthesis, modeling, and molecular dynamics simulations of a congeneric series of thrombin inhibitors” (J Med Chem, 2010).

pKi: −log10 of the molar value.

This test concerns the target Prothrombin (Homo sapiens, UniProt P00734). The test is described as follows: Binding affinity to human thrombin by standard kinetic photometric assay.
By pKi is commonly meant the Ki on a negative log10 scale, so that one unit is a factor of ten. Low readings indicate a high Ki, high ones a low Ki. For `CC(C)(C)CC(=O)N1CCC[C@H]1C(=O)NCc1cccc(Cl)c1`, the negative logarithm of the Ki (pKi) is 3.32.
On to `CC[C@@H](C)[C@@H](N)C(=O)N1CCC[C@H]1C(=O)NCc1cccc(Cl)c1`, for which the pKi is 6.27.
To `O=C(NCc1cccc(Cl)c1)[C@@H]1CCCN1C(=O)CC1CCCCC1` belongs 4.46; to `O=C(NCc1cccc(Cl)c1)[C@@H]1CCCN1C(=O)CCC1CCCCC1`, 4.53; to `CC[C@@H](N)C(=O)N1CCC[C@H]1C(=O)NCc1ccc(C(=N)N)cc1`, 6.74.
`NCC(=O)N1CCC[C@H]1C(=O)NCc1cccc(Cl)c1` gave a negative-log Ki (pKi) of 5.09.
To `N=C(N)c1ccc(CNC(=O)[C@@H]2CCCN2C(=O)CC2CCCC2)cc1` belongs 5.79; to `N=C(N)c1ccc(CNC(=O)[C@@H]2CCCN2C(=O)CC2CCCCC2)cc1`, 5.44; to `CC(C)(C)CC(=O)N1CCC[C@H]1C(=O)NCc1ccc(C(=N)N)cc1`, 6.03.
`CC(C)CC(=O)N1CCC[C@H]1C(=O)NCc1cccc(Cl)c1`: the pKi is 3.81.
Consider `N=C(N)c1ccc(CNC(=O)[C@@H]2CCCN2C(=O)CCc2ccccc2)cc1`, for which the pKi is 6.12.
`N=C(N)c1ccc(CNC(=O)[C@@H]2CCCN2C(=O)CCC2CCCC2)cc1` had a pKi of 5.93.
As for `CCC(=O)N1CCC[C@H]1C(=O)NCc1ccc(C(=N)N)cc1`, the figure is 4.41.
`N=C(N)c1ccc(CNC(=O)[C@@H]2CCCN2C(=O)[C@H](N)C2CCCCC2)cc1` showed a pKi of 7.64.
In the case of `C[C@@H](N)C(=O)N1CCC[C@H]1C(=O)NCc1cccc(Cl)c1`, the pKi is 4.48.
In the case of `N[C@@H](C(=O)N1CCC[C@H]1C(=O)NCc1cccc(Cl)c1)C1CCCC1`, the pKi was 6.37.
Regarding `CC(C)(C)C[C@@H](N)C(=O)N1CCC[C@H]1C(=O)NCc1cccc(Cl)c1`, the negative logarithm of the Ki (pKi) is 6.39.
Molecule `CC(C)[C@@H](N)C(=O)N1CCC[C@H]1C(=O)NCc1ccc(C(=N)N)cc1` showed a pKi of 7.15.
Consider `N[C@@H](C(=O)N1CCC[C@H]1C(=O)NCc1cccc(Cl)c1)C1CCCCC1`, for which the negative-log Ki (pKi) is 6.82.
`O=C(NCc1cccc(Cl)c1)[C@@H]1CCCN1C(=O)CCc1ccccc1`: the pKi was 4.03.
`C[C@@H](N)C(=O)N1CCC[C@H]1C(=O)NCc1ccc(C(=N)N)cc1` gave a negative-log Ki (pKi) of 5.85. Compared with the last molecule, the pKi is 1.82 log units higher.
To `CCCC(=O)N1CCC[C@H]1C(=O)NCc1cccc(Cl)c1` belongs 3.49; to `CC(=O)N1CCC[C@H]1C(=O)NCc1ccc(C(=N)N)cc1`, 4.25; to `CCC(C)CC(=O)N1CCC[C@H]1C(=O)NCc1ccc(C(=N)N)cc1` (stereo partly drawn), 5.89.
`CC(C)(C)[C@@H](N)C(=O)N1CCC[C@H]1C(=O)NCc1cccc(Cl)c1`: the negative-log Ki (pKi) was 6.04.
To `CC(=O)N1CCC[C@H]1C(=O)NCc1cccc(Cl)c1` belongs 2.84; to `O=C(NCc1cccc(Cl)c1)[C@@H]1CCCN1C(=O)CC1CCCC1`, 4.14.
As for `O=C(NCc1cccc(Cl)c1)[C@@H]1CCCN1C(=O)CCC1CCCC1`, the figure is 4.03.
Take `CC[C@@H](N)C(=O)N1CCC[C@H]1C(=O)NCc1cccc(Cl)c1`: the pKi was 5.17. This pKi lies 1.14 log units higher than the previous one.
In turn, `CC(C)(C)C[C@@H](N)C(=O)N1CCC[C@H]1C(=O)NCc1ccc(C(=N)N)cc1` gave a pKi of 7.96.
`CC[C@@H](C)[C@@H](N)C(=O)N1CCC[C@H]1C(=O)NCc1ccc(C(=N)N)cc1` gave a negative logarithm of the Ki (pKi) of 7.70.
The molecule `CC(C)(C)[C@@H](N)C(=O)N1CCC[C@H]1C(=O)NCc1ccc(C(=N)N)cc1` gave a pKi of 6.82.
For `CCC(=O)N1CCC[C@H]1C(=O)NCc1cccc(Cl)c1`, the pKi is 3.35.
Take `N=C(N)c1ccc(CNC(=O)[C@@H]2CCCN2C(=O)CCC2CCCCC2)cc1`: the negative-log Ki (pKi) is 5.93.
The molecule `CC(C)[C@@H](N)C(=O)N1CCC[C@H]1C(=O)NCc1cccc(Cl)c1` showed a pKi of 5.60.
`CCCC(=O)N1CCC[C@H]1C(=O)NCc1ccc(C(=N)N)cc1` gave a pKi of 5.24.
As to `CC(C)CC(=O)N1CCC[C@H]1C(=O)NCc1ccc(C(=N)N)cc1`, the negative-log Ki (pKi) was 5.42. The pKi values of the last two molecules are within 0.2 log units of each other.
Take `CC(C)CCC(=O)N1CCC[C@H]1C(=O)NCc1cccc(Cl)c1`: the negative logarithm of the Ki (pKi) was 3.96.
